This data set deals with MALAT1. To be noted: ASO, A431, 0.005 µM.

Drawing on the OligoGym collection, this text covers target mRNA inhibition for 99 sequences.

Several values for one entry are separate records, joined by “and”; a condition that tells them apart may be missing. Identical values can stand only once. After the bases stand the sugars from the 5' end (letter, count) and the backbone: PS all phosphorothioate, else s phosphorothioate and o phosphodiester by linkage. Methylation of C is not given here. k = constrained ethyl (cEt); d = 2'-deoxy (DNA)

On to CATCAAGGATGTATAT (sugars k3 d10 k3, PS), for which the target mRNA inhibition was -4%.

Consider TGTTCGAGAAATCGGA (sugars k3 d10 k3, PS), for which the target mRNA inhibition was 17%.

Regarding CATTTCTCCAATGGAC (sugars k3 d10 k3, PS), the target mRNA inhibition came to 12%.

As for ACCCACAAACTTGCCA (sugars k3 d10 k3, PS), the target mRNA inhibition was -2%.

As to AGGTCATCTATTCACA (sugars k3 d10 k3, PS), the target mRNA inhibition was 39%.

Regarding AACTCGCATCACCGGA (sugars k3 d10 k3, PS), the target mRNA inhibition stood at 21%.

For GCCGCAGGGATTTGAA (sugars k3 d10 k3, PS), the target mRNA inhibition was found to be 31%.

For the sequence GTTAACTAGGCTTTAA (sugars k3 d10 k3, PS), the target mRNA inhibition amounted to 23%.

As to AGCATTGGAGATCAGC (sugars k3 d10 k3, PS), the target mRNA inhibition was found to be 36%.

With TACTATATTTAAGGCC (sugars k3 d10 k3, PS), the target mRNA inhibition worked out at 1%.

As to CGGAAATTTTTCTACC (sugars k3 d10 k3, PS), the target mRNA inhibition was 8%.

On to GCTAGTCCTCAGGATT (sugars k3 d10 k3, PS), for which the target mRNA inhibition came to 47%.

Turning to TAGTGTAAAACATTGC (sugars k3 d10 k3, PS), the target mRNA inhibition stood at 35%.

As to CCAAATTGCACTCGCT (sugars k3 d10 k3, PS), the target mRNA inhibition worked out at 36%.

Consider ATGACCCTACTGAAGA (sugars k3 d10 k3, PS), for which the target mRNA inhibition was determined as 15%.

Regarding CACACCCAGAAGTGTT (sugars k3 d10 k3, PS), the target mRNA inhibition is 13%.

Take ACCCTCTAAGAGACAT (sugars k3 d10 k3, PS): the target mRNA inhibition was 35%.

Regarding TTACGAAAGTCCTTCA (sugars k3 d10 k3, PS), the target mRNA inhibition worked out at 28%.

AATTTCCTTAGTTGGC (sugars k3 d10 k3, PS): the target mRNA inhibition is 68% and 93%.

As for TAGAGAAGAATCCCCC (sugars k3 d10 k3, PS), the target mRNA inhibition turned out to be 34%.

Turning to TCTGAACCGGAGCAGG (sugars k3 d10 k3, PS), the target mRNA inhibition came to 19%.

Take AAATCGCCATGGAAAG (sugars k3 d10 k3, PS): the target mRNA inhibition worked out at 1%.

As for AAAACGAATTCAGGGT (sugars k3 d10 k3, PS), the target mRNA inhibition was 25%.

TGCCGACCTCACGGAT (sugars k3 d10 k3, PS): the target mRNA inhibition was found to be 24%.

Take CTTTACACCTCAGTAC (sugars k3 d10 k3, PS): the target mRNA inhibition amounted to 38%.

For TAAGGACAGCTAAGAT (sugars k3 d10 k3, PS), the target mRNA inhibition stood at 24%.

Turning to TTGCCCCTCCCCTTTA (sugars k3 d10 k3, PS), the target mRNA inhibition is 42%.

For the sequence CCTGTGGTGGTCTGAT (sugars k3 d10 k3, PS), the target mRNA inhibition was found to be 54%.

Consider CTTCTGCACCACCAGA (sugars k3 d10 k3, PS), for which the target mRNA inhibition turned out to be 13%.

For GCGCTTAAGAGGGCAG (sugars k3 d10 k3, PS), the target mRNA inhibition stood at 6%.

Regarding AACATTGGCACACAGC (sugars k3 d10 k3, PS), the target mRNA inhibition is 54%.

Take CAGGATCATTAAGCCA (sugars k3 d10 k3, PS): the target mRNA inhibition was determined as 42%.

Turning to GCCCACAAGGATCCAA (sugars k3 d10 k3, PS), the target mRNA inhibition was 15%.

Take TAGGTATGAGCTTCAG (sugars k3 d10 k3, PS): the target mRNA inhibition is 4%.

Regarding TTCCGTTACGAAAGTC (sugars k3 d10 k3, PS), the target mRNA inhibition stood at 33%.

For the sequence CAGTACGAAACTCCCC (sugars k3 d10 k3, PS), the target mRNA inhibition amounted to 30%.

With ATCAAGGATGTATATA (sugars k3 d10 k3, PS), the target mRNA inhibition is 0%.

For CAATTTATAGACCCCT (sugars k3 d10 k3, PS), the target mRNA inhibition was -6%.

As for AGCCCCCCACGGCCCG (sugars k3 d10 k3, PS), the target mRNA inhibition stood at 27%.

Turning to GTACTATCCCATCACT (sugars k3 d10 k3, PS), the target mRNA inhibition came to 33%.

Turning to TAGGCTTTAAATGACG (sugars k3 d10 k3, PS), the target mRNA inhibition came to 26%.

On to GTTACTTGCCAACTTG (sugars k3 d10 k3, PS), for which the target mRNA inhibition was 63% and 81%.

Turning to CCGCACAGCTCGGGCG (sugars k3 d10 k3, PS), the target mRNA inhibition amounted to 14%.

As to CTATATAAGGTCAATA (sugars k3 d10 k3, PS), the target mRNA inhibition amounted to 16%.

As to CTTCTGATAACGAAGA (sugars k3 d10 k3, PS), the target mRNA inhibition is -5%.

In the case of CCGACCTCACGGATTT (sugars k3 d10 k3, PS), the target mRNA inhibition turned out to be 39%.

In the case of ACAAGTCCTACAATTT (sugars k3 d10 k3, PS), the target mRNA inhibition is 31%.

For ACAAGATTCATGAGTA (sugars k3 d10 k3, PS), the target mRNA inhibition stood at 27%.

In the case of TCCCCTTCAAGCACCG (sugars k3 d10 k3, PS), the target mRNA inhibition was determined as 19%.

For GAGTGGTTTTATCTAA (sugars k3 d10 k3, PS), the target mRNA inhibition was 31%.

In the case of ATCCCTTCAGGATCAT (sugars k3 d10 k3, PS), the target mRNA inhibition was 19%.

With GCCCACTCTGATCTGC (sugars k3 d10 k3, PS), the target mRNA inhibition was -4%.

GTCTCCGAAGACACAG (sugars k3 d10 k3, PS): the target mRNA inhibition was -5%.

TTAGAGAAGAATCCCC (sugars k3 d10 k3, PS): the target mRNA inhibition amounted to 31%.

On to CTGGGTCAGCTGTCAA (sugars k3 d10 k3, PS), for which the target mRNA inhibition came to 33%.

Consider CCCCGGAACTTTTAAA (sugars k3 d10 k3, PS), for which the target mRNA inhibition amounted to 23%.

Consider TTCCGCCGCCTCTTAA (sugars k3 d10 k3, PS), for which the target mRNA inhibition came out at 22%.

Consider CACCTTGAGTCATTTG (sugars k3 d10 k3, PS), for which the target mRNA inhibition was determined as 37%.

Turning to TATAGCTTGACAAGCA (sugars k3 d10 k3, PS), the target mRNA inhibition was 19%.

Regarding AGTGTTCCTGCATGTA (sugars k3 d10 k3, PS), the target mRNA inhibition stood at 31%.

Consider AGTATCAAATTATGAC (sugars k3 d10 k3, PS), for which the target mRNA inhibition was 14%.

For the sequence CTTAGTTGGCATCAAG (sugars k3 d10 k3, PS), the target mRNA inhibition worked out at 31%.

In the case of GTGGTTATAGCTTGAC (sugars k3 d10 k3, PS), the target mRNA inhibition is 79% and 93%.

AGACTGTTGCTTGTTT (sugars k3 d10 k3, PS): the target mRNA inhibition came out at 1%.

For AATTGTAGTTAATGTC (sugars k3 d10 k3, PS), the target mRNA inhibition amounted to 36%.

As to CTATCTTCTATACTTC (sugars k3 d10 k3, PS), the target mRNA inhibition was 24%.

For AATTTTGAGTATGCTG (sugars k3 d10 k3, PS), the target mRNA inhibition was 54% and 71%.

As to TAAAGTAGACCAACTA (sugars k3 d10 k3, PS), the target mRNA inhibition amounted to 14%.

GCCAACTAATTGCCAA (sugars k3 d10 k3, PS): the target mRNA inhibition is 33%.

Take CAGCTTATGGAACTTG (sugars k3 d10 k3, PS): the target mRNA inhibition is -33%.

With GACCTGCCTTCAGGCG (sugars k3 d10 k3, PS), the target mRNA inhibition is 13%.

Take CCTGAAGTCAAGACAA (sugars k3 d10 k3, PS): the target mRNA inhibition is 0%.

On to TGCTACTCTTCTAAGT (sugars k3 d10 k3, PS), for which the target mRNA inhibition turned out to be 19%.

As for AAAACTCCCCCCCGCC (sugars k3 d10 k3, PS), the target mRNA inhibition is -4%.

In the case of TGTAGTTAATGTCAGC (sugars k3 d10 k3, PS), the target mRNA inhibition was 67% and 42%.

For AATCGGAGCAGCACGG (sugars k3 d10 k3, PS), the target mRNA inhibition worked out at 26%.

Turning to TCTTGAAGACTGTTGC (sugars k3 d10 k3, PS), the target mRNA inhibition was 44%.

As for AAACGGGTCATCAAAC (sugars k3 d10 k3, PS), the target mRNA inhibition was 19%.

As for ATGCCTACCGCACAGC (sugars k3 d10 k3, PS), the target mRNA inhibition was -8%.

AGTCCTGCGACTTGCT (sugars k3 d10 k3, PS): the target mRNA inhibition came to 26%.

In the case of AGATTAAAGTGTGATA (sugars k3 d10 k3, PS), the target mRNA inhibition worked out at 27%.

For the sequence CTCAATCCACTTGATC (sugars k3 d10 k3, PS), the target mRNA inhibition is 32%.

Regarding GTTCAACCCACCAAAG (sugars k3 d10 k3, PS), the target mRNA inhibition was 36%.

Consider GCAATACTGCAGATGC (sugars k3 d10 k3, PS), for which the target mRNA inhibition is -19%.

Regarding CTCTGCATCTAGGCCA (sugars k3 d10 k3, PS), the target mRNA inhibition came to 40%.

Take CGTATTTATAGACGGA (sugars k3 d10 k3, PS): the target mRNA inhibition was -9%.

Take TGCCCTTAGCTTTTTG (sugars k3 d10 k3, PS): the target mRNA inhibition amounted to 56%.

Take CAAACGAAACATTGGC (sugars k3 d10 k3, PS): the target mRNA inhibition was determined as 31%.

In the case of GTCAGGGACACACCCA (sugars k3 d10 k3, PS), the target mRNA inhibition was -11%.

Take GCTCCTGACAAATTAT (sugars k3 d10 k3, PS): the target mRNA inhibition turned out to be 17%.

Take GACTTGCTCCCAAGAC (sugars k3 d10 k3, PS): the target mRNA inhibition was 7%.

Regarding GAATTCGATCACCTTC (sugars k3 d10 k3, PS), the target mRNA inhibition was -1%.

In the case of TCAGTACGAAACTCCC (sugars k3 d10 k3, PS), the target mRNA inhibition came to 41%.

As for AACCCCCAGTTCAATA (sugars k3 d10 k3, PS), the target mRNA inhibition turned out to be 20%.

For CAATTAATGCTAGTCC (sugars k3 d10 k3, PS), the target mRNA inhibition was determined as 28%.

For CATCAGAAGAAATCCC (sugars k3 d10 k3, PS), the target mRNA inhibition turned out to be 17%.

For the sequence AATGGCGGACTTTCTC (sugars k3 d10 k3, PS), the target mRNA inhibition was 0%.

In the case of GCCCAGTAGGCCAGAC (sugars k3 d10 k3, PS), the target mRNA inhibition turned out to be 25%.

Take CGCCTGCTACCTTCAT (sugars k3 d10 k3, PS): the target mRNA inhibition is 30%.
